Results as given in article PMC10683482, “Offsetting Low-Affinity Carbohydrate Binding with Covalency to Engage Sugar-Specific Proteins for Tumor-Immune Proximity Induction” (ACS Central Science, 2023).
Like-named read-outs stand apart in the source and are kept apart here.

Test system: serum polyclonal antirhamnose antibodies (human IgG)
Experiment: BLI affinity of rhamnose probes for polyclonal human IgG
Assay type: binding
Details: for kon: anti-rhamnose assumed 3% of total IgG; for koff: dissociation in 100 mM L-rhamnose
From the text: We began by synthesizing antirhamnose affinity probes consisting of α-O/α-S and β-S rhamnose glycosides functionalized with a propargyl group for CuAAC-mediated coupling to a biotin TBD (compounds 1–3, Figure 1A and Scheme S1). This enabled rhamnose immobilization onto streptavidin surfaces and subsequent antibody binding studies. We used biolayer interferometry (BLI) to estimate and compare the apparent affinity of serum polyclonal antirhamnose antibodies for each rhamnose affinity probe (Figure 1B). […] Next, biosensors were submerged in a buffer containing free rhamnose competitor, and dissociation kinetics were measured (Figure 1B, Dissociation). The dissociation buffer contained 100 mM rhamnose competitor to inhibit avidity-based antibody rebinding, which interferes with koff measurements. […] In the context of proximity-inducing molecule development, this low monovalent sugar-binding affinity will ultimately limit ternary complex formation. […] The confirmation of low affinity binding also supports why multivalency has been historically required to efficiently engage antirhamnose antibodies for tumor-immune proximity induction and engage sugar binding receptors in general.
Figure 1 Affinity determination of endogenous and monoclonal antibody sources for L-rhamnose glycoside variants. A. Chemical structures of rhamnose affinity probes. B/C. Approximation of antirhamnose antibody binding affinity for probes 1–3 using biolayer interferometry. B. Purified human serum IgG is used to estimate the affinity of endogenous polyclonal serum antirhamnose antibodies for each affinity probe 1–3. C. Monoclonal anti-23F antibody is used to estimate the potential affinity of vaccine-induced antirhamnose antibodies for each affinity probe 1–3. […] Association was monitored for 900 (B) or 600 (C) seconds. The loaded biosensor probe was then dipped into a dissociation solution of 100 mM L-rhamnose for 600 s. Association curves were fit to a two-phase association model in GraphPad Prism using Kfast to calculate kon. Dissociation curves were similarly fit to a two-phase decay using Kfast to calculate koff. TEXT PRINTED IN THE PICTURE: (B) no label printed: Polyclonal Human IgG: Kd ≈ 7 x10^-5 M | (C) no label printed: Monoclonal Anti-23F: Kd ≈ 6 x10^-6 M DOUBTS OF THE COPYIST ABOUT THIS PICTURE: Panel B, Kd ≈ 7 x10^-5 M: printed once in the plot with no link to a single curve, so it is unclear which of (1) α–O, (2) α–S and (3) β–S it applies to / Panel C, Kd ≈ 6 x10^-6 M: printed once in the plot with no link to a single curve, so it is unclear which of (1) α–O, (2) α–S and (3) β–S it applies to […]
General Notes and Materials […]
Biolayer Interferometry (BLI) General notes and Materials
IgG from human serum was purchased from Innovative Research (IHUI GGAP1000MG). Anti -23F antibody was purchased fr om Creative Biolabs (PABX -173). Biolayer Interferometry (BLI) was conducted using a ForteBio Octet Red96, and streptavidin biosensors (Sartorius - 18-5019) or ProG biosensors (Sartorius – 18-5082). For quench, a 5% skim milk (Nestle Carnation Instant Skim Milk) solution in 1X kinetics buffer was used. The instrument was set at 25 °C, with 1000 RPM, and acquisition rate of 5 Hz.
Each well of a black well plate (Greiner Bio -One - 655086) was filled with 200 µL of appropriate solution.
Dissociation buffer was comprised of L-rhamnose (100 mM, Sigma Aldrich – R3875-10G) in 1X kinetics buffer to reduce avidity contribution to dissociation rate (koff).
SDS-PAGE General notes and Materials […]
Carboxyfluorescein was purchased from Sigma Aldrich (21877 -5G-F). IgG from human serum was purchased from Innovative Research (IHUIGGAP1000MG). Anti -23F antibody was purchased from Creative Biolabs (PABX -173). Laemellie Buffer (2x) was purchased from Sigma Aldrich (S3401 -10VL).
Pre-cast Tris-Glycine Gels (4-20%) were purchased from Fisher Scientific (XP04202BOX). Standard protein ladder was purchased from Bio Rad (1610363). […]

[1] = average of three IgG concentrations, read-out: Avg Kd

| Structure (SMILES) | kon (26.2 µM IgG) | koff (26.2 µM IgG) | Kd (26.2 µM IgG, read-out: Kd) | kon (52.5 µM IgG) | koff (52.5 µM IgG) | Kd (52.5 µM IgG, read-out: Kd) | kon (105 µM IgG) | koff (105 µM IgG) | Kd (105 µM IgG, read-out: Kd) | Kd [1] |
| --- | --- | --- | --- | --- | --- | --- | --- | --- | --- | --- |
| C[C@@H]1O[C@@H](OCc2cn(CCOCCNC(=O)OCCOCCOCCOCCOCCOCCOCCOCCNC(=O)CCCC[C@@H]3SC[C@@H]4NC(=O)N[C@@H]43)nn2)[C@H](O)[C@H](O)[C@H]1O [compound 1] | 20749 M⁻¹ s⁻¹ | 1.199 s⁻¹ | 58 µM | 13810 M⁻¹ s⁻¹ | 1.112 s⁻¹ | 81 µM | 8235 M⁻¹ s⁻¹ | 1.058 s⁻¹ | 128 µM | 89 ± 36 µM |
| C[C@@H]1O[C@@H](SCc2cn(CCOCCNC(=O)OCCOCCOCCOCCOCCOCCOCCOCCNC(=O)CCCC[C@@H]3SC[C@@H]4NC(=O)N[C@@H]43)nn2)[C@H](O)[C@H](O)[C@H]1O [compound 2] | 21981 M⁻¹ s⁻¹ | 1.103 s⁻¹ | 50 µM | 14298 M⁻¹ s⁻¹ | 0.97 s⁻¹ | 68 µM | 8194 M⁻¹ s⁻¹ | 0.8262 s⁻¹ | 101 µM | 73 ± 26 µM |
